Measured values taken from PubChem BioAssay AID1918956 (Molecular Pharmacology Branch, DTP, NCI, 2023).
Where “and” joins values, the source holds several entries; their conditions need not be identical. Identical values can stand only once.

Tested on: OVCAR-5 complex spheroids, viability
Assay: Anticancer human tumor OVCAR-5 cell line growth inhibition;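 further: spheroids exposed to agents for seven days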;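 on viability, T/C: 100% = DMSO vehicle control wells viability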
Details: for viability, T/C: stronger effect = lower value; active means viability on the fitted dose curve at most 10% of control; inactive means the rest
In short: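 Multicellular complex spheroids of tumor cells with human endothelial cells (HUVEC) and mesenchymal stem cells; the LSD1 inhibitor iadademstat was combined with standard-of-care or investigational agents. Top concentration at or near clinical Cmax, half-log dilutions; final DMSO ≤0.25%.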

[1] = curve of first compound, second compound 0.1 µM
[2] = curve of first compound, second compound 0.316 µM
[3] = curve of first compound, second compound 1 µM
[4] = curve of first compound, second compound 3.16 µM
[5] = curve of first compound, second compound 10 µM

CC[C@@]1(O)C(=O)OCc2c1cc1n(c2=O)Cc2cc3c(CN(C)C)c(O)ccc3nc2-1 + NC1CCC(NC2CC2c2ccccc2)CC1
12.1 nM: IC50 [4]
inactive: viability, T/C (second compound 0.1 µM, first compound 0.000316 µM) 103% | viability, T/C (second compound 0.1 µM, first compound 0.001 µM) 105% | viability, T/C (second compound 0.1 µM, first compound 0.00316 µM) 58.8% | viability, T/C (second compound 0.1 µM, first compound 0.01 µM) 50.2% | viability, T/C (second compound 0.1 µM, first compound 0.0316 µM) 48% | viability, T/C (second compound 0.1 µM, first compound 0.1 µM) 23.4% | viability, T/C (second compound 0.316 µM, first compound 0.000316 µM) 112% | viability, T/C (second compound 0.316 µM, first compound 0.001 µM) 97.7% | viability, T/C (second compound 0.316 µM, first compound 0.00316 µM) 56.5% | viability, T/C (second compound 0.316 µM, first compound 0.01 µM) 49.8% | viability, T/C (second compound 0.316 µM, first compound 0.0316 µM) 50% | viability, T/C (second compound 0.316 µM, first compound 0.1 µM) 24% | viability, T/C (second compound 1 µM, first compound 0.000316 µM) 105% | viability, T/C (second compound 1 µM, first compound 0.001 µM) 93.3% | viability, T/C (second compound 1 µM, first compound 0.00316 µM) 56.9% | viability, T/C (second compound 1 µM, first compound 0.01 µM) 51.2% | viability, T/C (second compound 1 µM, first compound 0.0316 µM) 47.7% | viability, T/C (second compound 1 µM, first compound 0.1 µM) 26.7% | viability, T/C (second compound 3.16 µM, first compound 0.000316 µM) 109% | viability, T/C (second compound 3.16 µM, first compound 0.001 µM) 98.5% | viability, T/C (second compound 3.16 µM, first compound 0.00316 µM) 62.4% | viability, T/C (second compound 3.16 µM, first compound 0.01 µM) 51.3% | viability, T/C (second compound 3.16 µM, first compound 0.0316 µM) 49.3% | viability, T/C (second compound 3.16 µM, first compound 0.1 µM) 28.2% | viability, T/C (second compound 10 µM, first compound 0.000316 µM) 91.1% | viability, T/C (second compound 10 µM, first compound 0.001 µM) 85.5% | viability, T/C (second compound 10 µM, first compound 0.00316 µM) 51.8% | viability, T/C (second compound 10 µM, first compound 0.01 µM) 49.3% | viability, T/C (second compound 10 µM, first compound 0.0316 µM) 48.7% | viability, T/C (second compound 10 µM, first compound 0.1 µM) 27.7%
10.9 nM: IC50 [2]
5.66 nM: IC50 [1]
9.89 nM: IC50 [5]
11.2 nM: IC50 [3]

CC(C)CC(NC(=O)C(Cc1ccccc1)NC(=O)c1cnccn1)B(O)O (centres undefined)
inactive: viability, T/C (compound 0.000316 µM) 101% and 95.8% | viability, T/C (compound 0.001 µM) 108% and 93.7% | viability, T/C (compound 0.00316 µM) 79.5% and 72.4% | viability, T/C (compound 0.01 µM) 44.7% and 39.4% | viability, T/C (compound 0.0316 µM) 19.9% and 15.4%
10% and 7.18%: viability, T/C (compound 0.1 µM)
8.4 nM and 6.94 nM: IC50 (curve of compound)

Nc1ccn(C2OC(CO)C(O)C2(F)F)c(=O)n1 (centres undefined) + NC1CCC(NC2CC2c2ccccc2)CC1
< 0.949 nM: IC50 [1] | IC50 [2] | IC50 [3] | IC50 [4] | IC50 [5]
inactive: viability, T/C (second compound 0.1 µM, first compound 0.000949 µM) 27.8% | viability, T/C (second compound 0.1 µM, first compound 0.003 µM) 29% | viability, T/C (second compound 0.1 µM, first compound 0.00949 µM) 30.3% | viability, T/C (second compound 0.1 µM, first compound 0.03 µM) 31.4% | viability, T/C (second compound 0.1 µM, first compound 0.0949 µM) 30.7% | viability, T/C (second compound 0.1 µM, first compound 0.3 µM) 28.6% | viability, T/C (second compound 0.316 µM, first compound 0.000949 µM) 29.5% | viability, T/C (second compound 0.316 µM, first compound 0.003 µM) 30.3% | viability, T/C (second compound 0.316 µM, first compound 0.00949 µM) 31% | viability, T/C (second compound 0.316 µM, first compound 0.03 µM) 32.4% | viability, T/C (second compound 0.316 µM, first compound 0.0949 µM) 30.8% | viability, T/C (second compound 0.316 µM, first compound 0.3 µM) 30.6% | viability, T/C (second compound 1 µM, first compound 0.000949 µM) 32.8% | viability, T/C (second compound 1 µM, first compound 0.003 µM) 33.5% | viability, T/C (second compound 1 µM, first compound 0.00949 µM) 34.3% | viability, T/C (second compound 1 µM, first compound 0.03 µM) 33.2% | viability, T/C (second compound 1 µM, first compound 0.0949 µM) 32.7% | viability, T/C (second compound 1 µM, first compound 0.3 µM) 31.2% | viability, T/C (second compound 3.16 µM, first compound 0.000949 µM) 32.8% | viability, T/C (second compound 3.16 µM, first compound 0.003 µM) 34.4% | viability, T/C (second compound 3.16 µM, first compound 0.00949 µM) 35.5% | viability, T/C (second compound 3.16 µM, first compound 0.03 µM) 36.3% | viability, T/C (second compound 3.16 µM, first compound 0.0949 µM) 33.7% | viability, T/C (second compound 3.16 µM, first compound 0.3 µM) 31.9% | viability, T/C (second compound 10 µM, first compound 0.000949 µM) 33.3% | viability, T/C (second compound 10 µM, first compound 0.003 µM) 34.9% | viability, T/C (second compound 10 µM, first compound 0.00949 µM) 36.8% | viability, T/C (second compound 10 µM, first compound 0.03 µM) 34.6% | viability, T/C (second compound 10 µM, first compound 0.0949 µM) 34.9% | viability, T/C (second compound 10 µM, first compound 0.3 µM) 33.1%

CC(C)CC(NC(=O)CNC(=O)c1cc(Cl)ccc1Cl)B1OC(=O)CC(CC(=O)O)(C(=O)O)O1 (centres undefined)
inactive: viability, T/C (compound 0.000316 µM) 94.7% and 103% | viability, T/C (compound 0.001 µM) 95.6% and 99.8% | viability, T/C (compound 0.00316 µM) 92.1% and 95.9% | viability, T/C (compound 0.01 µM) 80.1% and 77.8% | viability, T/C (compound 0.0316 µM) 85% and 71.1% | viability, T/C (compound 0.1 µM) 70.6% and 57.8%
> 100 nM: IC50 (curve of compound)
